Patent publication US9957271B2, “Substituted bicyclic aza-heterocycles and analogues as sirtuin modulators” (GlaxoSmithKline, LLC, priority 2012, dated 2018)

What was measured:
[1] = biological target: T1, SIRT1 (Homo sapiens, UniProt Q96EB6); experiment: Trp mass spectrometry assay of SIRT1 activity; assay type: biochemical; settings: Trp peptide substrate; for Trp EC1.5: concentration giving 150% activation of SIRT1; for Emax: percent maximum fold activation, read-out: Trp % Fold Act
T1 sequence (Q96EB6 1-747): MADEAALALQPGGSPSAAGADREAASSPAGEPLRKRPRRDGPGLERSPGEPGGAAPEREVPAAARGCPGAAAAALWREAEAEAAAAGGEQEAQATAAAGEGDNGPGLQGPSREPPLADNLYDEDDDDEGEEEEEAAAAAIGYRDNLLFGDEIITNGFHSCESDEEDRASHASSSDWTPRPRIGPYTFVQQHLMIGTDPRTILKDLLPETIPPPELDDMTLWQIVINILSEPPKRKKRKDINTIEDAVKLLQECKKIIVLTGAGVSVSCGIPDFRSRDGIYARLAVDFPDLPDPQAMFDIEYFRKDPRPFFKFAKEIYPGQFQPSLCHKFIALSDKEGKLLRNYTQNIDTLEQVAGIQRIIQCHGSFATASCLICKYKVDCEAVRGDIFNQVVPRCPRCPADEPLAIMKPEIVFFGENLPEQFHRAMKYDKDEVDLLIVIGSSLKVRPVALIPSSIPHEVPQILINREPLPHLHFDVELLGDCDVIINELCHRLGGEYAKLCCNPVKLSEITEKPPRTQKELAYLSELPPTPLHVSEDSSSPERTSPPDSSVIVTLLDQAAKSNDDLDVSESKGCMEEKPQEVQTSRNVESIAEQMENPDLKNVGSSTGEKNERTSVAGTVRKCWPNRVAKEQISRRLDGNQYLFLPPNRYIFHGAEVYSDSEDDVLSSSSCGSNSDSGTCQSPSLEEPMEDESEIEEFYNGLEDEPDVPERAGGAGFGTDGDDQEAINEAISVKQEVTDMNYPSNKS
Method in brief: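 His-tagged SIRT1 expressed in E. coli BL21(DE3), 10 nM, incubated 25 min at 25° C. with 0.5 μM Ac-RHKK(Ac)W-NH2 peptide and 120 μM βNAD+ in 50 mM HEPES pH 7.5, […], 1 mM DTT, 0.05% BSA; formic acid stop. OAADPR or deacetylated peptide measured by mass spectrometry; EC1.5 and percent maximum activation versus DMSO control.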

[2] = biological target: T1, SIRT1; experiment: TAMRA based mass spectrometry assay of SIRT1 activity; assay type: biochemical; settings: TAMRA peptide substrate; for TAMRA EC1.5: concentration giving 150% activation of SIRT1; for Emax: percent maximum fold activation, read-out: TAMRA % Fold Act
Method in brief: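 Recombinant N-terminal His-tagged human SIRT1 (10 nM, E. coli) incubated 25 min at 25 °C with 0.5 μM 5TMR-labelled p53-derived acetyl-peptide and 120 μM βNAD+ in Tris-acetate pH 8 buffer with DTT and 0.05% BSA, compound at varying concentrations. Stopped with formic acid; deacetylated peptide or OAADPR measured by mass spectrometry relative to DMSO controls.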

Cc1cnc(C(=O)Nc2cnc3c(C)cc(-c4ccccc4C(F)(F)F)nn23)s1 [Compound 424]
Trp EC1.5 [1]: B (EC1.5 1-25 μM) | Emax [1]: < 350% | TAMRA EC1.5 [2]: A (EC1.5<1 μM) | Emax [2]: ≥ 350%

Cc1cc(-c2ccccc2C(F)(F)F)nn2c(NC(=O)c3cccc(N4CCOCC4)n3)cnc12 [Compound 425]
Trp EC1.5 [1]: A (EC1.5<1 μM) | Emax [1]: ≥ 350% | TAMRA EC1.5 [2]: A (EC1.5<1 μM) | Emax [2]: ≥ 350%

Cc1cc(-c2ccccc2C(F)(F)F)nn2c(NC(=O)c3cccc(OCC(O)CO)n3)cnc12 (stereo not shown) [Compound 427]
Trp EC1.5 [1]: A (EC1.5<1 μM) | Emax [1]: ≥ 350% | TAMRA EC1.5 [2]: A (EC1.5<1 μM) | Emax [2]: ≥ 350%

Cc1nc2c(C)cc(-c3ccccc3C(F)(F)F)nn2c1C(=O)Nc1cccnn1 [Compound 428, 2,8-dimethyl-N-(pyridazin-3-yl)-6-(2-(trifluoromethyl)phenyl)imidazo[1,2-b]pyridazine-3-carboxamide]
Trp EC1.5 [1]: A (EC1.5<1 μM) | Emax [1]: ≥ 350% | TAMRA EC1.5 [2]: A (EC1.5<1 μM) | Emax [2]: ≥ 350%

COc1nccc(NC(=O)c2cnc3ccc(-c4ccccc4OC(F)(F)F)nn23)n1 [Compound 430]
Trp EC1.5 [1]: A (EC1.5<1 μM) | Emax [1]: ≥ 350% | TAMRA EC1.5 [2]: A (EC1.5<1 μM) | Emax [2]: ≥ 350%

Cc1cccc(NC(=O)c2cnc3ccc(-c4ccccc4OC(F)(F)F)nn23)n1 [Compound 431]
Trp EC1.5 [1]: B (EC1.5 1-25 μM) | Emax [1]: < 350% | TAMRA EC1.5 [2]: A (EC1.5<1 μM) | Emax [2]: ≥ 350%

Cc1nc(C(=O)Nc2cnc3cc(C)c(-c4ccccc4C(F)(F)F)nn23)cs1 [Compound 433]
Trp EC1.5 [1]: C (EC1.5>25 μM) | Emax [1]: < 350% | TAMRA EC1.5 [2]: A (EC1.5<1 μM) | Emax [2]: ≥ 350%

Cc1cc(C)nc(C(=O)Nc2cnc3ccc(-c4ccccc4C(F)(F)F)nn23)c1 [Compound 436]
Trp EC1.5 [1]: C (EC1.5>25 μM) | Emax [1]: < 350% | TAMRA EC1.5 [2]: A (EC1.5<1 μM) | Emax [2]: ≥ 350%

COc1cccc(C(=O)Nc2cnc3ccc(-c4ccccc4C(F)(F)F)nn23)n1 [Compound 437]
Trp EC1.5 [1]: A (EC1.5<1 μM) | Emax [1]: ≥ 350% | TAMRA EC1.5 [2]: A (EC1.5<1 μM) | Emax [2]: ≥ 350%

O=C(Nc1cnc2ccc(-c3ccccc3C(F)(F)F)nn12)c1ncccc1F [Compound 439]
Trp EC1.5 [1]: A (EC1.5<1 μM) | Emax [1]: < 350% | TAMRA EC1.5 [2]: A (EC1.5<1 μM) | Emax [2]: ≥ 350%

Cc1cc2ncc(NC(=O)c3cnccn3)n2nc1-c1ccccc1C(F)(F)F [Compound 442]
Trp EC1.5 [1]: C (EC1.5>25 μM) | Emax [1]: < 350% | TAMRA EC1.5 [2]: A (EC1.5<1 μM) | Emax [2]: ≥ 350%

Cc1cc2ncc(NC(=O)c3ccncn3)n2nc1-c1ccccc1C(F)(F)F [Compound 443]
Trp EC1.5 [1]: C (EC1.5>25 μM) | Emax [1]: < 350% | TAMRA EC1.5 [2]: A (EC1.5<1 μM) | Emax [2]: ≥ 350%

Cc1nc(C(=O)Nc2cnc3cc(C)c(-c4ccccc4C(F)(F)F)nn23)c(C)s1 [Compound 445]
Trp EC1.5 [1]: B (EC1.5 1-25 μM) | Emax [1]: < 350% | TAMRA EC1.5 [2]: A (EC1.5<1 μM) | Emax [2]: ≥ 350%

Cc1cc2ncc(NC(=O)c3cccc(N4CCC4)n3)n2nc1-c1ccccc1C(F)(F)F [Compound 448]
Trp EC1.5 [1]: B (EC1.5 1-25 μM) | Emax [1]: ≥ 350% | TAMRA EC1.5 [2]: A (EC1.5<1 μM) | Emax [2]: ≥ 350%

Cc1cc2ncc(NC(=O)c3cccc(OCC(O)CO)n3)n2nc1-c1ccccc1C(F)(F)F (stereo not shown) [Compound 449]
Trp EC1.5 [1]: A (EC1.5<1 μM) | Emax [1]: ≥ 350% | TAMRA EC1.5 [2]: A (EC1.5<1 μM) | Emax [2]: ≥ 350%

O=C(Nc1cccnc1)c1ncn2ccc(-c3ccccc3C(F)(F)F)nc12 [Compound 451, N-(pyridin-3-yl)-2-(2-(trifluoromethyl)phenyl)imidazo[1,5-a]pyrimidine-8-carboxamide]
Trp EC1.5 [1]: B (EC1.5 1-25 μM) | Emax [1]: ≥ 350% | TAMRA EC1.5 [2]: B (EC1.5 1-25 μM) | Emax [2]: ≥ 350%

O=C(Nc1cccc(N2CCOCC2)n1)c1ncn2ccc(-c3ccccc3C(F)(F)F)nc12 [Compound 454]
Trp EC1.5 [1]: A (EC1.5<1 μM) | Emax [1]: ≥ 350% | TAMRA EC1.5 [2]: A (EC1.5<1 μM) | Emax [2]: ≥ 350%

O=C(Nc1ncn2ccc(-c3ccccc3C(F)(F)F)nc12)c1ccccn1 [Compound 455, N-(2-(2-(trifluoromethyl)phenyl)imidazo[1,5-a]pyrimidin-8-yl)picolinamide]
Trp EC1.5 [1]: C (EC1.5>25 μM) | Emax [1]: < 350% | TAMRA EC1.5 [2]: B (EC1.5 1-25 μM) | Emax [2]: < 350%

Cc1nc(NC(=O)c2c(C)nc3c(C)cc(-c4ccccc4C(F)(F)F)nn23)sc1C [Compound 457]
Trp EC1.5 [1]: A (EC1.5<1 μM) | Emax [1]: < 350% | TAMRA EC1.5 [2]: A (EC1.5<1 μM) | Emax [2]: ≥ 350%

Cc1nc2c(C)cc(-c3ccccc3C(F)(F)F)nn2c1C(=O)Nc1ccncn1 [Compound 460]
Trp EC1.5 [1]: A (EC1.5<1 μM) | Emax [1]: ≥ 350% | TAMRA EC1.5 [2]: A (EC1.5<1 μM) | Emax [2]: ≥ 350%

Cc1nc2ccc(-c3ccccc3C(F)(F)F)nn2c1C(=O)Nc1ccncn1 [Compound 461]
Trp EC1.5 [1]: B (EC1.5 1-25 μM) | Emax [1]: ≥ 350% | TAMRA EC1.5 [2]: A (EC1.5<1 μM) | Emax [2]: ≥ 350%

Cc1nc2ccc(-c3ccccc3C(F)(F)F)nn2c1C(=O)Nc1cnccn1 [Compound 463]
Trp EC1.5 [1]: B (EC1.5 1-25 μM) | Emax [1]: ≥ 350% | TAMRA EC1.5 [2]: A (EC1.5<1 μM) | Emax [2]: ≥ 350%

Cc1nc2ccc(-c3ccccc3OC(F)(F)F)nn2c1C(=O)Nc1ccncc1F [Compound 466]
Trp EC1.5 [1]: A (EC1.5<1 μM) | Emax [1]: ≥ 350% | TAMRA EC1.5 [2]: A (EC1.5<1 μM) | Emax [2]: ≥ 350%

O=C(Nc1cnc2ccc(-c3ccccc3C(F)(F)F)nn12)c1cccc(O)n1 [Compound 467]
Trp EC1.5 [1]: B (EC1.5 1-25 μM) | Emax [1]: < 350% | TAMRA EC1.5 [2]: B (EC1.5 1-25 μM) | Emax [2]: ≥ 350%

Cc1nc2ccc(-c3ccccc3OC(F)(F)F)nn2c1C(=O)Nc1ccncn1 [Compound 469]
Trp EC1.5 [1]: B (EC1.5 1-25 μM) | Emax [1]: ≥ 350% | TAMRA EC1.5 [2]: A (EC1.5<1 μM) | Emax [2]: ≥ 350%

Cc1nc2ccc(-c3ccccc3OC(F)(F)F)nn2c1C(=O)Nc1ccc(F)cn1 [Compound 472]
Trp EC1.5 [1]: C (EC1.5>25 μM) | Emax [1]: < 350% | TAMRA EC1.5 [2]: B (EC1.5 1-25 μM) | Emax [2]: < 350%

Cc1nc2c(C)cc(-c3ccccc3C(F)(F)F)nn2c1C(=O)Nc1ccncc1F [Compound 473]
Trp EC1.5 [1]: A (EC1.5<1 μM) | Emax [1]: ≥ 350% | TAMRA EC1.5 [2]: A (EC1.5<1 μM) | Emax [2]: ≥ 350%

Cc1cc(NC(=O)c2c(C)nc3c(C)cc(-c4ccccc4C(F)(F)F)nn23)nc(C)n1 [Compound 475]
Trp EC1.5 [1]: B (EC1.5 1-25 μM) | Emax [1]: ≥ 350% | TAMRA EC1.5 [2]: A (EC1.5<1 μM) | Emax [2]: ≥ 350%

Cc1nc2c(C)cc(-c3ccccc3OC(F)(F)F)nn2c1C(=O)Nc1ccncn1 [Compound 478]
Trp EC1.5 [1]: A (EC1.5<1 μM) | Emax [1]: ≥ 350% | TAMRA EC1.5 [2]: A (EC1.5<1 μM) | Emax [2]: ≥ 350%

Cc1cccc(NC(=O)c2c(C)nc3c(C)cc(-c4ccccc4OC(F)(F)F)nn23)n1 [Compound 480]
Trp EC1.5 [1]: B (EC1.5 1-25 μM) | Emax [1]: < 350% | TAMRA EC1.5 [2]: A (EC1.5<1 μM) | Emax [2]: ≥ 350%

Cc1cc(NC(=O)c2c(C)nc3c(C)cc(-c4ccccc4OC(F)(F)F)nn23)ccn1 [Compound 481]
Trp EC1.5 [1]: A (EC1.5<1 μM) | Emax [1]: ≥ 350% | TAMRA EC1.5 [2]: A (EC1.5<1 μM) | Emax [2]: ≥ 350%

O=C(Nc1ncn2ccc(-c3ccccc3C(F)(F)F)nc12)c1ccncn1 [Compound 484]
Trp EC1.5 [1]: C (EC1.5>25 μM) | Emax [1]: < 350% | TAMRA EC1.5 [2]: B (EC1.5 1-25 μM) | Emax [2]: < 350%

COc1cccc(NC(=O)c2cnn3ccc(-c4ccccc4C(F)(F)F)nc23)n1 [Compound 486]
Trp EC1.5 [1]: A (EC1.5<1 μM) | Emax [1]: ≥ 350% | TAMRA EC1.5 [2]: A (EC1.5<1 μM) | Emax [2]: ≥ 350%

O=C(Nc1cccc(N2CCOCC2)n1)c1cnc2ccc(N3CC[C@H](F)C3)nn12 [Compound 487, (S)-6-(3-fluoropyrrolidin-1-yl)-N-(6-morpholinopyridin-2-yl)imidazo[1,2-b]pyridazine-3-carboxamide]
Trp EC1.5 [1]: A (EC1.5<1 μM) | Emax [1]: ≥ 350% | TAMRA EC1.5 [2]: B (EC1.5 1-25 μM) | Emax [2]: < 350%
